According to patent US12594267B2, “Capsid inhibitors for the treatment of HIV” (Gilead Sciences, Inc., priority 2018, dated 2026):

Test: PK after subcutaneous administration of solutions in dogs
Format: in vivo, Beagle dog
Conditions: for Plasma concentration: SC 12 mg/kg, 300 mg/mL (22.6% water/50% PEG 300/1.1% NaOH/26.3% Formula (Ia))
Protocol: Formulations containing the compound of Formula (Ia) were prepared as aqueous solutions or oral formulations and administered subcutaneously to rats, dogs, cynomolgus monkey, and/or rhesus monkey.
A solution of the compound of Formula (Ia) in 10% ethanol, 13% water, and 77% PEG 200 (400 mg/mL) was prepared. The solution was administered subcutaneously to dogs at a dose of 12 mg/kg and rats at a dose of 50 mg/kg and the pharmacokinetic (PK) profile was determined. […] In both species, plasma concentrations of the compound of Formula (Ia) were maintained above the target trough concentration of 20 nM (corresponding to an IQ of 5) for at least 84 days (12 weeks).
A solution of the compound of Formula (Ia) in 15% water and 85.0 PEG 300 (400 mg/mL) was prepared. The solution was administered subcutaneously to male beagle dogs at a dose level of 12 mg/kg and dose volume of […] and the pharmacokinetic (PK) profile was determined.
A solution of the compound of Formula (a) sodium salt in water and 300 (300 mg/mL) was prepared that contained 22.6% water/50% PEG 300/1.1% NaOH/26.3% Formula (Ia). The solution was administered subcutaneously to male beagle dogs at a dose level of 12 mg/kg and dose volume of […] and the pharmacokinetic (PK) profile was determined.
A 300 mg/ml solution of a compound of Formula (Ia) having 9.8 w/w % water, 65.0 w/w % PEG 300, and 25.2 w/w % of the compound of Formula (Ia) was prepared. The solution was administered subcutaneously to rats at a dose of 50 mg/kg and to dogs at a dose of 12 mg/kg and the pharmacokinetic (PK) profile was determined. […] In the rat, plasma concentrations of the compound of Formula (Ia) were maintained above the target trough concentration of 20 nM for at least 168 days (24 weeks). In the dog, plasma concentrations of the compound of Formula (Ia) were maintained above the target trough concentration of 20 nM for at least 84 days (12 weeks).
(§1) A 150 mg/ml solution of a compound of Formula (Ia) having 27.92 w/w % water, 58.04 w/w % PEG 300, 13.47 w/w % of a compound of Formula (Ia), and 1.1 w/w % NaOH was prepared. The solution was administered subcutaneously to rats at a dose of 50 mg/kg and to dogs at a dose of 12 mg/kg and the pharmacokinetic (PK) profile was determined. […] In the rat, plasma concentrations of the compound of Formula (Ia) were maintained above the target trough concentration of 20 nM for at least 126 days (18 weeks). In the dog, plasma concentrations of the compound of Formula (Ia) were maintained above the target trough concentration of 20 nM for at least 56 days (8 weeks).
as §1, with “300” for “150”, “23.2” for “27.92”, “50.0” for “58.04”, “25.7” for “13.47”
A 50 mg/ml solution of a compound of Formula (Ia) having 30.07 w/w % water, 64.40 w/w % PEG 300, 4.68 w/w % of a sodium salt of the compound of Formula (Ia), and 0.85 w/w % poloxamer 188 was prepared. The solution was administered subcutaneously to rats at a dose of 50 mg/kg and to dogs at a dose of 6 mg/kg and the pharmacokinetic (PK) profile was determined. […] In the rat, plasma concentrations of the compound of Formula (Ia) were maintained above the target trough concentration of 20 nM for at least 28 days (4 weeks). In the dog, plasma concentrations of the compound of Formula (Ia) were maintained above the target trough concentration of 20 nM for at least 14 days (2 weeks). […]

[1] = male beagle dog, single SC 12 mg/kg, 300 mg/mL, 50, 22.6, 1.1, 26.3 w/w % PEG300:Water:NaOH:Formula (Ia), mean ± SD, n=3

## CC(C)(C#Cc1ccc(-c2ccc(Cl)c3c([N-]S(C)(=O)=O)nn(CC(F)(F)F)c23)c([C@H](Cc2cc(F)cc(F)c2)NC(=O)Cn2nc(C(F)(F)F)c3c2C(F)(F)[C@@H]2C[C@H]32)n1)S(C)(=O)=O.[Na+] [Formula (Ia) sodium salt]
Dog #1, 0 h
  Plasma concentration: BLQ
Dog #1, 1.0 h
  Plasma concentration: 14.0 nM
Dog #1, 3.0 h
  Plasma concentration: 26.0 nM
Dog #1, 8.0 h
  Plasma concentration: 56.3 nM
Dog #1, 24 h
  Plasma concentration: 57.1 nM
Dog #1, 48 h
  Plasma concentration: 71.1 nM
Dog #1, 72 h
  Plasma concentration: 51.5 nM
Dog #1, 96 h
  Plasma concentration: 46.4 nM
Dog #1, 168 h
  Plasma concentration: 47.7 nM
Dog #2, 0 h
  Plasma concentration: BLQ
Dog #2, 1.0 h
  Plasma concentration: 7.2 nM
Dog #2, 3.0 h
  Plasma concentration: 17.0 nM
Dog #2, 8.0 h
  Plasma concentration: 25.8 nM
Dog #2, 24 h
  Plasma concentration: 25.4 nM
Dog #2, 48 h
  Plasma concentration: 29.0 nM
Dog #2, 72 h
  Plasma concentration: 16.2 nM
Dog #2, 96 h
  Plasma concentration: 14.0 nM
Dog #2, 168 h
  Plasma concentration: 13.6 nM
Dog #3, 0 h
  Plasma concentration: BLQ
Dog #3, 1.0 h
  Plasma concentration: 8.6 nM
Dog #3, 3.0 h
  Plasma concentration: 16.8 nM
Dog #3, 8.0 h
  Plasma concentration: 32.1 nM
Dog #3, 24 h
  Plasma concentration: 54.5 nM
Dog #3, 48 h
  Plasma concentration: 57.8 nM
Dog #3, 72 h
  Plasma concentration: 58.0 nM
Dog #3, 96 h
  Plasma concentration: 59.2 nM
Dog #3, 168 h
  Plasma concentration: 43.1 nM
Dog mean, n=3, 1.0 h
  Plasma concentration: 10.0 nM
Dog mean, n=3, 3.0 h
  Plasma concentration: 19.9 nM
Dog mean, n=3, 8.0 h
  Plasma concentration: 38.1 nM
Dog mean, n=3, 24 h
  Plasma concentration: 45.7 nM
Dog mean, n=3, 48 h
  Plasma concentration: 52.6 nM
Dog mean, n=3, 72 h
  Plasma concentration: 41.9 nM
Dog mean, n=3, 96 h
  Plasma concentration: 39.9 nM
Dog mean, n=3, 168 h
  Plasma concentration: 34.8 nM
[1]
  AUC0-24h: 0.85 ± 0.31 µM·h
  AUC0-48h: 2.03 ± 0.76 µM·h
  AUC0-72h: 3.16 ± 1.27 µM·h
  AUC0-168h: 6.83 ± 3.24 µM·h
